# According to US9075071B1, “Methods for diagnosis and treatment of cancer” (University of Mississippi Medical Center, priority 2012, dated 2015):
# Structures can show the parent of a compound that is named as a salt. Peptide text beside a SMILES is read from it. * marks the point of attachment. Cbz = O=C(OCc1ccccc1)*
# What was measured:
# leukemia cells = conditions: cited from earlier work
# geminin protein = experiment: Geminin level by western blot of sonicated extracts; type: cell-based, human
# Description: To study the consequence of silencing or inactivating c-Abl on geminin overexpressing cells, experiments were first undertaken to analyze what happens to geminin protein following c-Abl silencing or inactivation. […] Another Dox treated set of cells were transfected with c-Abl dominant negative construct (i.e. K209R, see Srinivasan and Plattner, 2006) during the last 48 h. Sonicated extracts were then prepared from all cultures and geminin level was measured using western blot analysis. […] Similar effects were also observed in cells endogenously overexpressing geminin.
# HME cells = experiment: Cell cycle progression, PI labeling and FACS; type: cell-based, human; conditions: for effect on cell cycle progression: normal HME cells, 24 h, vs DMSO, ZM447439 5 μM, Nocodazole 250 ng/ml, Taxol 10 μM
# Description: (§1) Breast cancer cell lines were maintained in RPMI medium (Invitrogen, Carlsbad, Calif.) supplemented with 10% FBS and antibiotics. Maintenance of HME cells was performed as described previously. Cells were treated with 5 μM […] (Toronto Research Chemicals Inc., North York, ON), 100 ng/ml colcemid (Sigma, St. Louis, Mo.), 250 ng/ml Nocodazole (Sigma), 10 μM Taxol (Sigma). PI or FITC-conjugated anti-BrdU FACS analysis was performed as in [20]. Annexin-V was performed according to manufacturer's instructions (BD Biosciences, 556547, San Jose, Calif.).
# (§2) To evaluate that in detail, HME (or Gem9−Dox) and induced (72 h) Gem9 cells were incubated with 5 μM of ZM447439 (a specific and potent inhibitor of AurB) for an additional 24 h. To measure the effect of ZM447439 on cell cycle progression aliquots from each culture were labeled with PI and analyzed by FACS.
# (§3) To evaluate whether these effects were restricted to AurB inhibitors or could be seen with drugs that alter the integrity of the microtubules apparatus as well, HME and induced Gem9 cells were treated with DMSO (control), Nocodazole (a microtubules depolymerizing agent) or Taxol (a microtubules stabilizing agent) for another 24 h. […] However, both treatments also had modest effect on geminin overexpression cells (FIGS. 9C and 9D).
# (§4) Low number of dying cells was detected in parental or Gem9 cells in the absence of Dox (FIGS. 13E/1 and 13E/5, 13F/1 and 13F/5 and 13G) or in HME cells in the presence of Dox (FIGS. 13E/2 and 13E/6, 13F/2 and 13F/6 and 13G). […] It was thought that degradation of geminin following c-Abl silencing or inactivation promoted cell death in geminin overexpressing and not normal cells, at least in part, because cells became addicted to high levels of geminin.
# [1] = tested on: induced Gem9 cells (geminin overexpressing HME cells); experiment: Cell cycle progression, PI labeling and FACS; type: cell-based, human; conditions: Gem9 induced 72 h; for effect on cell cycle progression: then drug 24 h, vs DMSO, ZM447439 5 μM, Nocodazole 250 ng/ml, Taxol 10 μM
# Description: as §1, §2, §3, §4
# [2] = tested on: induced Gem9 (Gem9+Dox) cells; experiment: Cell survival, PI/annexin V labeling and FACS; type: cell-based, human; conditions: Gem9 induced 72 h, then drug 24 h; ZM447439 5 μM, Nocodazole 250 ng/ml
# Description: as §1
# (§5) To measure the effect on ZM447439 on cell survival, aliquots from each culture were labeled with PI/annexin V and analyzed by FACS. […] Indeed, in ZM447439 treated cells only 40±5% of the cells were PI^−/V^−, and 41±7% were PI^+/V^− and 20±6% were PI^−/V^++PI^+/V (FIG. 9B). […] Indeed, in ZM447439 treated cells 66±4% of the cells were PI^−/V^−, 24±3% were PI^+/V^− and 10±3% were PI^−/V^++PI^+/V^+ (FIG. 9E).
# [3] = tested on: uninduced Gem9 (Gem9-Dox, HME) cells; experiment: Cell survival, PI/annexin V labeling and FACS; type: cell-based, human; conditions: 24 h, ZM447439 5 μM, Nocodazole 250 ng/ml
# Description: as §1, §5
# [4] = tested on: induced Gem9 cells (geminin overexpressing); experiment: Metaphase chromosome spread, chromosome condensation; type: cell-based, human
# Description: (§6) […] Cells were then trypsinized and washed and gently resuspended in PBS. 10 ml of 0.075M KCl was drop wise added and the cells were incubated at 37° C. (in a water bath) for 5-10 mins. Cells were then centrifuged at 900 rpm for 5 minutes and KCl was removed. 5 ml of freshly prepared fixative (3:1 Methanol/Acetic acid) was added drop wise to the cells and carefully mixed. Cells were centrifuged at 900 rpm for 5 minutes and the fixative was removed. This step was repeated 2 more times. Finally, all but 300 μl of the fixative media was removed and cells were dropped from approximately 18 inches onto an angled, humidified microscope slide. Slides were air-dry for at least 10 mins and cells were stained with propidium iodide (PI) or Giemsa.
# uninduced Gem9 cells = experiment: as above; type: cell-based, human; conditions: 10 μM colcemid 1 h
# Description: as §6
# SCID mice = conditions: mouse, in vivo
# Description: Geminin overexpressing cells were injected subcutaneously or orthotopically (in mammary gland) in SCID mice as described above. When tumors reached 0.5-0.75 cm^3 in volume the treatments were initiated. […] Mice were treated for 5 days and were rested for 2 days and tumor size was measured daily using calipers. At the end of the experiments tumors were dissected out, weighed and fixed in formalin, and cut at 4 μm for histological and immunohistochemical analysis.
# p-(S10)-H3 = experiment: FITC-anti-p-H3-(S10) labeling and FACS; type: cell-based, human; conditions: imatinib 10 μM 24 h, c-Abl silencing 72 h
# Excerpt: Diminution of (S10)-H3 phosphorylation leads to chromosome condensation failure, lack of chromosome segregation and induction of aneuploidy (Giet et al., 2001). […] Aliquots of each culture were then fixed, labeled with FITC-anti-p-H3-(S10) specific antibody and analyzed by FACS.
# induced Gem9 cells [5] = experiment: PI / FITC-anti-BrdU FACS, tetraploid/aneuploid cells; type: cell-based, human; conditions: Gem9 induced 72 h (approximately 35% without treatment); imatinib 10 μM last 24 h, c-Abl silencing 72 h
# Description: BrdU (20 μM) was added to all cultures during the last 24 h and cultures were collected, labeled with PI and FITC-anti-BrdU antibody and analyzed by FACS.
# induced Gem9 cells [6] = experiment: Dying cells under light microscope and TUNEL; type: cell-based, human; conditions: Gem9 induced 96 h; imatinib 10 μM last 48 h, c-Abl silencing 96 h
# Excerpt: (§7) The Fluorescein FragEL™ DNA Fragmentation Detection kit (Calbiochem) was used according to the supplier's protocol.
# as §4
# parental HME cells = experiment: Dying cells under light microscope and TUNEL; type: cell-based, human; conditions: imatinib 10 μM last 48 h, c-Abl siRNA 96 h
# Excerpt: as §7, §4
# Gem9/LT mammary tumors = experiment: Treatment of orthotopic (mammary) geminin-driven tumors in SCID mice; type: in vivo, mouse
# Description: (§8) All animal experiments were approved by the University of Hawaii IACUC committee and University of Mississippi Medical Center IACUC committee. Six- to eight-week-old anaesthetized immune-compromised athymic SCID (NOD.CB17-Prkdc^scid/J, Jackson Laboratory) mice were injected with human mammary epithelial (HME) cells (5×10^6) resuspended in 200 μl of HME medium/matrigel (1:1) using a 25-gauge needle. Tumor initiation was defined as the time when tumors were 3 mm in diameter. Mice were sacrificed when the tumors grew to greater than 1.5 cm in diameter or after 12 wks of monitoring. Tumor volume was calculated with the formula 4/3πr^3 (where r is the tumor radius). At the end of the experiments tumors were dissected out, weighed and then fixed in formalin, and subsequently cut at 4 μm for histological and immunohistochemical analysis.
# (§9) Tumor formation was analyzed with IVIS luciferase machine (Xenogen, Alameda, Calif.) weekly and tumor size was measured every third day by calipers. To analyze tumor formation using the in vivo system, mice were intraperitoneally injected using a 30G needle with 100 μl of D-luciferin solution (Xenogen) prepared at 15 mg/mL in PBS. […]
# (§10) Geminin overexpressing cells were injected subcutaneously or orthotopically (in mammary gland) in SCID mice as described above. […] Mice were treated for 5 days and were rested for 2 days and tumor size was measured daily using calipers. […]
# [7] = tested on: Gem9/LT subcutaneous tumors; experiment: Treatment of subcutaneous geminin-driven tumors in SCID mice; type: in vivo, mouse; conditions: imatinib 50 mg/kg/day, day 12
# Description: as §8, §9, §10
smiles,measurement,setting,value
CCN(CCCOc1ccc2c(Nc3cc(CC(=O)Nc4cccc(F)c4)n[nH]3)ncnc2c1)CCOP(=O)(O)O [AZD1152],effect on DNA content of cells,leukemia cells,induce accumulation of cells with greater than 4N DNA content
CC(C)C[C@@H](C=O)NC(=O)[C@H](CC(C)C)NC(=O)[C@H](CC(C)C)NC(=O)OCc1ccccc1 [MG132] (Cbz-Leu-Leu-Leu-aldehyde),geminin protein level,"geminin protein; HME as well as induced Gem9 (72 h) cells, 10 μM MG132 together with 10 μM imatinib, last 24 h",an increase instead of a decrease
COC(=O)Nc1nc2ccc(C(=O)c3cccs3)cc2[nH]1 [Nocodazole],effect on cell cycle progression,HME cells,"triggered accumulation of normal HME cells in G2/M phase, followed by tetraploidy and then cell death"
same,effect on cell cycle progression,[1],modest effect
same,alive cells (PI-/V-),[2],78±6%
same,apoptotic cells (PI-/V+ + PI+/V+),[2],10±2%
same,necrotic cells (PI+/V-),[2],12±3%
same,alive cells (PI-/V-),[3],75±5%
same,apoptotic cells (PI-/V+ + PI+/V+),[3],20±5%
same,necrotic cells (PI+/V-),[3],6±4%
CC(=O)O[C@H]1C(=O)[C@@]2(C)[C@H]([C@H](OC(=O)c3ccccc3)[C@]3(O)C[C@H](OC(=O)[C@H](O)[C@@H](NC(=O)c4ccccc4)c4ccccc4)C(C)=C1C3(C)C)[C@]1(OC(C)=O)CO[C@@H]1C[C@@H]2O [Taxol],effect on cell cycle progression,HME cells,"triggered accumulation of normal HME cells in G2/M phase, followed by tetraploidy and then cell death"
same,effect on cell cycle progression,[1],modest effect
COc1cc2c(Nc3ccc(NC(=O)c4ccccc4)cc3)ncnc2cc1OCCCN1CCOCC1 [ZM447439],effect on cell cycle progression,HME cells,triggered accumulation of normal HME cells in G2/M phase followed by tetraploidy and then cell death
same,effect on cell cycle progression,[1],little effect
same,alive cells (PI-/V-),[2],66±4%
same,apoptotic cells (PI-/V+ + PI+/V+),[2],10±3%
same,necrotic cells (PI+/V-),[2],24±3%
same,alive cells (PI-/V-),[3],40±5%
same,apoptotic cells (PI-/V+ + PI+/V+),[3],20±6%
same,necrotic cells (PI+/V-),[3],41±7%
CN[C@H]1CCc2cc(OC)c(OC)c(OC)c2-c2ccc(OC)c(=O)cc21 [colcemid],chromosome condensation,"[4]; Gem9 with Dox 7 days, 10 μM colcemid 1 h",failed to condense the chromosomes
same,chromosome condensation,uninduced Gem9 cells,induced condensation
COc1cccc2c1C(=O)c1c(O)c3c(c(O)c1C2=O)C[C@@](O)(C(=O)CO)C[C@@H]3O[C@H]1C[C@H](N)[C@H](O)[C@H](C)O1 [doxorubicin],toxicity to the mice,SCID mice,adverse side effects including death
"Cc1ccc(NC(=O)c2ccc(CN3CCN(C)CC3)cc2)cc1Nc1nccc(-c2cccnc2)n1 [imatinib, imatinib mesylate]",effect on cell cycle (PI FACS),"HME cells; HME cells, imatinib 10 μM last 24 h, c-Abl silencing 72 h",induced G1-arrest
same,"effect on cell cycle (PI FACS), sub-G1 and >4N cells","[1]; imatinib 10 μM last 24 h, c-Abl silencing 72 h",induced significant increase in sub-G1 and reduced the level of >4N cells
same,p-(S10)-H3-positive cells,p-(S10)-H3; induced Gem9 cells (approximately 2% without treatment),approximately 13%
same,p-(S10)-H3-positive cells,p-(S10)-H3; parental HME cells,reduced the percentage of p(S10)-H3-positive cells
same,chromosome condensation,"[4]; Gem9 with Dox 7 days plus colcemid, imatinib 10 μM last 24 h, c-Abl silencing last 72 h",restored chromosome condensation
same,cells with greater than 4N DNA content (tetraploid/aneuploid),induced Gem9 cells [5],approximately 6%
same,endogenous geminin protein level,"geminin protein; HME cells, Dox 72 h, imatinib 10 μM last 24 h, c-Abl silencing 72 h",Significant reduction
same,geminin protein level,"geminin protein; MCF7 (ER+) breast cancer cells, imatinib 10 μM or c-Abl silencing",significantly reduced the level of geminin protein
same,geminin protein level,"geminin protein; MDAMB231 (ER-) breast cancer cells, imatinib 10 μM or c-Abl silencing",significantly reduced the level of geminin protein
same,overexpressed geminin protein level,"geminin protein; induced Gem9 cells, Dox 72 h, imatinib 10 μM last 24 h, c-Abl silencing 72 h",Significant reduction
same,"number of dying cells (light microscope, TUNEL+)",induced Gem9 cells [6],high number of dying cells
same,"number of dying cells (light microscope, TUNEL+)",parental HME cells,Low level of dying cells
same,mammary tumor size compared with no treatment,Gem9/LT mammary tumors; imatinib 50 mg/kg/day,5-10 fold
same,killing of geminin-driven tumors (tumor size),"Gem9/LT mammary tumors; start at 0.5 to 0.7 cm^3, imatinib 50 mg/kg/day, doxorubicin 5 mg/kg/day, 14 days",as effective in killing geminin-driven tumors as doxorubicin
same,subcutaneous tumors after treatment,[7],barely detectable
